Target: T1, HaloPETase1 (Halopseudomonas pachastrellae, UniProt A0A1S8DDV9)
T1 construct: gene BXT89_15940; N-terminal signal peptide removed; N-10xHis-SUMO tag cut with SenP2 (tag kept in agar-plate screen); extra N-terminal Ser and C-terminal Ala from FX cloning; E. coli Shuffle T7
T1 sequence (A0A1S8DDV9 24-289): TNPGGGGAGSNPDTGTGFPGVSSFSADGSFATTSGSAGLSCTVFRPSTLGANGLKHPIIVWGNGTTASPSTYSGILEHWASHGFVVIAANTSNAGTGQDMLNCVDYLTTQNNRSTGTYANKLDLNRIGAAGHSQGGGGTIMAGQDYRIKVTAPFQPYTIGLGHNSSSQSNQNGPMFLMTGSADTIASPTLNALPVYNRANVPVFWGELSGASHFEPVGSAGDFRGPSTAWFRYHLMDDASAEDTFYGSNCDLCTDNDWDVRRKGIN
Assay: absorbance at […] nm, initial rate (residual activity assay)
Assay type: biochemical
Details: 1 mM substrate, 20 mM NaPi, pH 7.4, 150 mM NaCl, 1% DMSO; tag removed

CCCC(=O)Oc1ccc([N+](=O)[O-])cc1 [para‐nitrophenyl butyrate]
absorbance at 405 nm, initial rate (residual activity assay): the residual activity was measured by a para‐nitrophenyl butyrate (pNPB) assay
